Experimental data from US11571418B2, “Platinum compounds that inhibit constitutive STAT3 signaling and induce cell cycle arrest and apoptosis of malignant cells” (H. LEE MOFFITT CANCER CENTER AND RESEARCH INSTITUTE, INC., priority 2011, dated 2023).

Tests used:
[1] = test system: Stat3-dependent firefly luciferase reporter pLucTKS3; test: Stat3-dependent luciferase reporter assay; type: cell-based, mouse; details: stable NIH3T3/v-Src/pLucTKS3, 48 h
Experimental: FIGS. 3A-3D. Inhibition of Stat3-mediated gene expression by PLATINUM-401. (FIG. 3A) and (FIG. 3B) v-Src-transformed mouse fibroblasts that stably express Stat3-dependent (NIH3T3/v-Src/pLucTKS3) and Stat3-independent (NIH3T3/v-Src/pRLSRE) luciferase reporters or β-galactosidase (β-gal), as well as normal mouse fibroblast (NIH3T3) transiently transfected with pLucTKS3, pGL2-VEGF-Luc, NFkB-Luc or pLucSRE together with or without v-Src were treated with or without PLATINUM-401 for 48 h. Cytosolic extracts were then prepared from cells for luciferase and […] activities measurements. […]
Cytosolic extract preparation and luciferase assays—Cytosolic extract preparation from fibroblasts and luciferase assays were previously described (Turkson et al., 1998; Turkson et al., 1999). […] Cells were resuspended in 0.4 ml of low-salt HEPES buffer (10 mM HEPES [pH 7.8], 10 mM KCl, 0.1 mM EGTA, 0.1 mM EDTA, 1 mM phenylmethylsulfonyl fluoride (PMSF), and 1 mM dithiothreitol (DTT)) for 15 min, lysed by the addition of 20 μl of 10% Nonidet P-40 (NP-40), and centrifuged (10,000×g, 30 s, 4° C.) to obtain the cytosolic supernatant, which was used for luciferase assays (Promega) measured with a luminometer. […]
To further investigate the activities of PLATINUM-401, the inventors treated malignant cells and measured effects on Stat3 signaling. […]

[2] = test system: malignant cells harboring constitutively-active Stat3; test: Constitutive Stat3 activation in treated malignant cells (EMSA of nuclear extracts); type: cell-based; details: 24 h treatment
Experimental: FIGS. 5A and 5B. Evaluation for effects of PLATINUM-401 on cellular constitutive Stat3 activation and cell proliferation. Normal or malignant cells were treated with or without PLATINUM-401 and nuclear extracts were prepared for Stat3 DNA-binding activity assay with hSIE probe, or cells were processed for nuclear Ki67 immunohistochemistry. (FIG. 5A) EMSA analysis of Stat3 DNA-binding activity; (FIG. 5B) Graphical representations of quantified nuclear staining of Ki-67 proliferation index. Stat3:Stat3-DNA complexes in gels are labeled. The Ki-67 proliferation indexes were calculated as the percent positive tumor cells relative to the total number of cells. Ki67 values are representative of 3 independent assays.
Nuclear extract preparation and gel shift assays—Nuclear extract preparation from NIH3T3 stimulated by rhIL-6, NIH3T3/hEGFR stimulated by rhEGF, v-Src-transformed fibroblasts (NIH3T3/v-Src) or tumor cell lines and electrophoretic mobility shift assay were carried out as previously described (Turkson et al., 1998; Garcia et al., 1997; Yu et al., 1995). […]
The inventors further examined the biological effects of PLATINUM-401 and determined whether any changes might correlate with the inhibition of constitutively-active Stat3. […]

CC(O)CN1CCN(CC(C)O)CC1 (centres unmarked) [PLATINUM-401]
induction of Stat3-dependent reporter [1]: strongly suppresses
constitutive activation of Stat3 [2]: significant inhibition
